Laboratory results: paper PMC12040169 (PLOS Biology, 2025)

Experiment: in vitro
Details: human, hela cells, % viability

Structure (SMILES) | viability at 28.5 h, 10 µM [%]
CCC1(O)C(C)C(c2ccc(Cl)cc2)NC(c2ccc(Cl)cc2)C1C (stereo not shown) [CBK025376C] | 124
Cc1ccccc1Cn1c(=O)sc2ccccc21 [CBK025408] | 94.9
CSc1ccc(SC/C(N)=N/O)cc1 [CBK025411C] | 96.1
C(=N\Nc1nc2ccccc2[nH]1)/c1cccs1 [CBK025417] | 87.6
CCOc1ccc2c(c1)N1C(=O)NC(C(F)(F)F)(C(F)(F)F)N=C1S2 [CBK025440] | 85.4
CC1(C)CC(=O)Nc2ccccc2S1 [CBK025483] | 98.2
O=C1Nc2ccccc2SC1(O)C(F)(F)F (stereo not shown) [CBK025554] | 114
O=S1(=O)C=C(N2CCCCCC2)CC1 [CBK025571C] | 85.7
CCOC(=O)COc1ccc2nsnc2c1Cl [CBK025603] | 91.4
O=c1[nH]c(NCCCO)nc2sc3c(c12)CCCC3 [CBK025611] | 87.9
NC1=NN2C(=C(c3ccc(O)c(C(=O)O)c3)NN2c2ccccc2)N1 [CBK025631] | 95.2
Cn1c(=O)n(CC#N)c2ccccc21 [CBK025636] | 96.9
COc1ccc(-c2cc3nnc(C)nc3s2)cc1 [CBK025638] | 107
Nn1cnn2c(SCC(=O)Nc3ccc(Cl)cc3)nnc12 [CBK025688] | 99
Nc1nonc1C(=O)NCc1cccnc1 [CBK025695] | 95.9
Cc1ccc(OC(C)c2nc(-c3nonc3N)no2)cc1C (stereo not shown) [CBK025698] | 92.4
Cc1cc(Cl)cc(Cl)c1OCCCc1c(C)n[nH]c1C [CBK025733C] | 76.9
Cc1n[nH]c(C)c1CCCCCOc1ccccc1F [CBK025736C] | 88.9
COc1cc(/C=N/Nc2nonc2N)cc(OC)c1OC [CBK025758] | 73.2
COc1c(I)cc(Br)cc1/C=N/NC(=O)CC#N [CBK025764] | 91.8
Cc1cc(C)n2nc(S(N)(=O)=O)c(C#N)c2n1 [CBK025767] | 90.7
COc1cc(CN2CCN(c3ccccn3)CC2)cc(Br)c1O [CBK025770] | 91.9
COc1ccc(CNC2CCCc3ccccc32)c(OC)c1C (stereo not shown) [CBK025778G] | 77.6
CSc1nc(N)c2nccnc2n1 [CBK025779] | 104
O=C(NC(Sc1ncccn1)C(=O)c1ccccc1)c1ccccc1 (stereo not shown) [CBK025806] | 95.5
CCc1nnc(NC(=O)CSc2nc3c([nH]2)c(=O)n(C)c(=O)n3C)s1 [CBK025840] | 113

Structure (SMILES) | viability at 28.5 h, 10 µM [%]
C[S+]([O-])CC(O)(c1ccc(F)cc1)C1CC1 (stereo not shown) [CBK025846] | 114
COc1ccc(N(CCC#N)S(=O)(=O)c2cccc3nsnc23)cc1 [CBK025851] | 90.7
COc1ccc2[nH]c3c(=O)n(C)cnc3c2c1 [CBK025870] | 85.8
O=C(c1cccnc1N1CCCCC1)N1CCCCC1 [CBK025882] | 109
CC1(C)SC(c2ccc(F)cc2)N[C@H]1C(=O)O (stereo partly shown) [CBK025917] | 91.4
Nc1nc(N)c2cc(C(F)(F)F)ccc2n1 [CBK025934] | 66.4
Nc1nc(N)c2cccc(F)c2n1 [CBK025945] | 91.4
COc1ccc2c(-n3cncn3)ccnc2c1 [CBK025957] | 90.2
Cc1cc(C)c2nc(-n3cncn3)c(C)cc2c1 [CBK025958] | 88.9
Clc1ccc(CNC2CCCCC2NCc2ccc(Cl)nc2)cn1 (stereo not shown) [CBK025983] | 82.7
CCCn1nnn(-c2cc(OCCOCC)c(Cl)cc2Cl)c1=O [CBK026016] | 99
O=C(O)COc1ccc(Br)cn1 [CBK026021] | 104
CC1NCCc2c1sc1ccccc21 (stereo not shown) [CBK026032C] | 100
COC(=O)c1sc(NC(=O)C2CC2)c(C#N)c1C [CBK026049] | 107
O=C(C1CCC1)N1CCN(c2ccccn2)CC1 [CBK026058] | 107
O=C(Nc1nnc[nH]1)c1cccnc1Cl [CBK026067] | 113
COC(=O)Cn1c(=O)sc2cccc(Cl)c21 [CBK026076] | 93.9
OC(COc1ccccc1)Cn1ncnn1 (stereo not shown) [CBK026083] | 89.6
COc1ccc(CCCC(=O)NC2CCCCC2C)cc1 (stereo not shown) [CBK026124] | 94.3
CCCSc1nnc(-c2c(Cl)c(CC)nn2C)s1 [CBK026135] | 104
Cc1nn(C)c2c1c(=O)n(C)c(=O)n2C [CBK026140] | 89.2
Cc1n[nH]c(O)c1C(c1ccc(Br)o1)c1c(C)n[nH]c1O [CBK026150] | 102
CCc1nnc(N/N=C/c2cccs2)n1N [CBK026233C] | 97.9
CCOc1ccccc1OCC(C)CNC (stereo not shown) [CBK026242G] | 120
CC(C)c1ccc2c(c1)C(N1CCN(C)CC1)Cc1cccnc1S2 (stereo not shown) [CBK026244G] | 98.7
CCc1cccc2c1Sc1ccccc1CC2N1CCN(C)CC1 (stereo not shown) [CBK026248G] | 103

Structure (SMILES) | viability at 28.5 h, 10 µM [%]
Cc1ccc(SCCNS(C)(=O)=O)cc1 [CBK026280] | 90.8
C/C(CS(=O)(=O)c1ccccc1)=N/NC(N)=S [CBK026285] | 111
Cc1nnc(SCC(=O)c2ccccc2)[nH]1 [CBK026287] | 99.5
CCCC1(OC(=O)Nc2ccc(Cl)cc2)CCCCC1 [CBK026295] | 91.4
Brc1csc(CN2CCN3CCCC3C2C2CCCCC2)c1 (stereo not shown) [CBK026298] | 103
CCOC(=O)C1=NN(C(=O)c2ccc(Cl)cc2)C(O)(C(C)(C)C)C1 (stereo not shown) [CBK026308] | 86
CC1=C(C(=O)OC(C)C)C(c2cccc(I)c2)C2=C(CCCC2=O)N1 (stereo not shown) [CBK026317] | 86.5
OC1CCCCC1C1(NC(=S)Nc2ccccc2)CCCCC1 (stereo not shown) [CBK026324] | 97.9
S=c1[nH]nc(Nc2ccccc2)n1-c1ccccc1 [CBK026332] | 123
Oc1cccnc1CCc1ccccc1 [CBK026334C] | 100
C(=N\Nc1nc2ccccc2[nH]1)/c1cccnc1 [CBK026357] | 115
NC(=O)CS(=O)(=O)c1ccc(Cl)cc1 [CBK026373] | 95.7
O=C(O)CSc1c[nH]c2ccccc12 [CBK026377] | 93.9
O=C(Nc1nc2ccc(Br)cc2s1)C1CC2CCC1C2 (stereo not shown) [CBK026397] | 88.8
Clc1ccc(-c2noc(-c3ccco3)n2)cc1 [CBK026405] | 86
O=C(O)c1nc2n(n1)C(C(F)(F)F)CC(c1cccs1)N2 (stereo not shown) [CBK026415] | 97
CS(=O)(=O)N/N=C/c1ccc(Cl)cc1Cl [CBK026420] | 105
CS(=O)(=O)N/N=C/c1cccc(Br)c1 [CBK026427] | 92.5
Cc1ccsc1CN1CCOCC1 [CBK026429] | 110
NC(=O)N/N=C/c1cc(Br)cs1 [CBK026434] | 81.8
CC(=O)NCC1OCCc2ccccc21 (stereo not shown) [CBK026449] | 98.4
CCC1=NC(c2ccccc2Cl)N(O)C1(C)C (stereo not shown) [CBK026466] | 97.5
CC1CN(c2ccccc2Br)NC1=O (stereo not shown) [CBK026500] | 96.7
O=S(=O)(O)CCCSc1nc2ccccc2o1 [CBK026507N] | 97.2
Brc1ccc(-c2nnco2)cc1 [CBK026512] | 84.3
CCn1c(=O)sc2cc(Br)ccc21 [CBK026526] | 97

Structure (SMILES) | viability at 28.5 h, 10 µM [%]
CSc1nc2c(cc1C#N)CCC2 [CBK026532] | 108
CCc1nc(C)ccc1O [CBK026535C] | 91
CN1CCC(=NNC(=O)CSCc2ccccc2Br)CC1 [CBK026542] | 104
Cc1ccc(NC(=O)OCC(F)(F)C(F)F)cc1Cl [CBK026548] | 93.1
O=[N+]([O-])c1ccc(CN2CCN(C/C=C/c3ccccc3)CC2)o1 [CBK026551] | 85.1
O=C(CSc1nc(=O)cc(O)[nH]1)c1ccccc1 [CBK026570] | 96.7
CC(SCCc1ccccn1)C(=O)O (stereo not shown) [CBK026572] | 109
CCCCCc1nc(N)c(-c2cccc(Br)c2)c(C#N)c1CCCC [CBK026574] | 118
Cc1ccc(C(C)C)c(OCC(O)CNC(C)C)c1 (stereo not shown) [CBK026604C] | 111
CC(Sc1ccccc1)C(=O)NC(C)(C)C (stereo not shown) [CBK026610] | 116
CC1CCCC(C)N1C(=O)C1CCCCC1C(=O)O (stereo not shown) [CBK026624] | 93.2
C=C(C)Cn1c(SCCC(=O)OC)nc2sc3c(c2c1=O)CC(C)(C)OC3 [CBK026634] | 59.9
CC(=O)Nc1nc(NC(C)=O)n2c(-c3ccccc3)nnc2n1 [CBK026649] | 93.7
CC1CN(C(=O)NC2CCCCC2)C(c2ccccc2)ON1C (stereo not shown) [CBK026650] | 109
CCc1nnc(NS(=O)(=O)c2ccc(OC(F)(F)F)cc2)s1 [CBK026672] | 91.7
Cc1nnc(NS(=O)(=O)c2ccc(OC(F)(F)F)cc2)s1 [CBK026673] | 95.9
COC(=O)c1c(NS(=O)(=O)c2cccc(Cl)c2)csc1C [CBK026678] | 79.6
COC(=O)c1scc(NS(=O)(=O)c2cccc(C(F)(F)F)c2)c1C(=O)OC [CBK026680] | 94.9
CC(C)Cc1csc2nc(-c3ccc(Br)cc3)oc(=O)c12 [CBK026692] | 96.7
S=c1nc(-c2ccccc2)n2cc(Br)ccc2n1 [CBK026696] | 111
O=C(CCOc1ccccc1)Nc1cncc(OC2CCNCC2)n1 [CBK026734T] | 95.2
CSc1nc(NC(=O)C(C)c2ccccc2)cc(N2CCNCC2)n1 (stereo not shown) [CBK026742T] | 91.2
C[C@@H]1CNCCN1c1cc(C(F)(F)F)cc(OCc2ccccc2)n1 [CBK026755] | 79.1

Same assay, conditions: human, hela cells, % viability, bulk resorufin, single well

Structure (SMILES) | viability at 28.5 h, 10 µM [%]
Cc1cn(-c2ccc(OC(=O)NC(C)(C)C)c(Cl)c2)c(=O)n1C [CBK025991] | 106
CNCCc1csc2ccc(C)cc12 [CBK026097] | 91.6
